Data on one compound can be found in patent US20040229791A1, “Compositions and methods of modulating TGF-beta activity by fatty acids” (priority 2002, published 2004).

Data set [1] deals with Mv1Lu cells. The data set is described as follows: [Methyl-3H]-thymidine incorporation assay, TGF-β2-induced growth inhibition. It counts as cell-based, mink. The source says: The levels of TGF ? β and ? 2M* also increase dramatically. α2M* is capable of inhibiting TGF- ? activity by forming complexes with TGF- ? and thus preventing it from binding to TGF ? β receptors in cells involved. Fatty acids may potentiate TGF ? β activity by blocking complex formation of ? 2M* and TGF ? β under these conditions. To test this possibility, we determined the effects of arachidonic acid on ^125I-TGF- ? 2 binding (in the presence and absence of α2M*) to Mv1Lu cells. ? 2M* is known to inhibit TGF- ? 2 more strongly than TGF ? β1 binding to T receptors in cells (13). Various concentrations of ^125I-TGF- ? 2 were preincubated with 200 μg/ml of ? 2M* in the presence or absence of 30 μM arachidonic acid for 30 min prior to the performance of binding assays in Mv1Lu cells. […] The residual ^125I-TGF- ? binding associated with the cells after ? 2M* inhibition was mainly due to non-specific binding of ^125I-TGF- ? 2. […] In the presence of 200 μg/ml of ? 2M*, the dose-response curve of TGF ? β2 shifted to the right. […] Addition of arachidonic acid at 0.5 and 1 μM reversed the inhibitory effect of. α2M* on TGF- ? 2-induced growth inhibition as measured by [methyl-^3H]-thymidine incorporation.
[Methyl-^3H]-Thymidine Incorporation Assay—Mv1Lu cells were plated at a cell density of 7.5×10^4 cells/well in DMEM containing 0.1% fetal calf serum in 48-well cluster dishes. After 4 hr at 37° C. (to allow cell adherence), cells were treated with various concentrations of TGF- ? 2,2M* (0 or 200 μg/ml) and arachidonic acid ([…] or 1 μM). After 1h at 37° C., cells were pulsed with 1 μCi/ml [methyl-^3H]-thymidine for 2 hr. The [methyl-^3H]-th incorporation into cellular DNA was carried out in triplicate as described previously (23).

A short description of data set [2]: Plasma clearance of 125I-TGF-β1 with and without α2M* and arachidonic acid. It counts as in vivo, mice. The settings on record: control experiments, no α2M*. The procedure: TGF ? β1-α2M* and TGF- ? 2- ? 2M* complexes are cleared from plasma by the ? liver (30). To test the possibility that fatty acids may be able to affect the plasma clearance of TGF ? β and α2M* complexes, ^125I-TGF ? β1 or ^125I-TGF- ? 2 were prei presence or absence of 10 μM arachidonic acid at room temperature for 30 min, and then injected into mice via tail vein according to published procedures (19). At several time intervals (10 sec, 1, 2, 3, 5, 10, 15, 20, 30 and 60 min) about 50 μl of blood was collected and counted by a γ-counter. […] The t 1+α2M* or ^125I-TGF- ? 2+α2M* were approximately 4 min. These twith published values of free ^125I-TGF- ? 1,2 and ^125I-TGF- ? 1,2-α2M* complexes, respe (19). In the presence of arachidonic acid, the t1/2s of ^125I-TGF ? β1+α2M* and ^125I-TGF α2M* were decreased to approximately 1-2 min; these are essentially identical to the t1/2s of free ^125I-TGF- ? 1 and ^125I-TGF ? β2 (FIGS. 7A and B). In control experiments, arachidonic acid did no affect the plasma clearance of free ^125I-TGF ? β1 and ^125I-TGF- ? 2.
Plasma clearance of ^125I-TGF ? β in the presence and absence of ? 2M*-^125I-TGF- ? 1 nM) or ^125I-TGF- ? 2 (1 nM) was pre-incubated with ? […] The radioactivity in the blood sample obtained at 10 s was taken as 100%.

Take `CCCCC/C=C\C/C=C\C/C=C\C/C=C\CCCC(=O)O` [arachidonic acid]: the “reversal of the inhibitory effect of α2M* on TGF-β2-induced growth inhibition” value in data set [1] (0.5 μM arachidonic acid, 200 μg/ml α2M*) is “reversed”. Also, the “reversal of the inhibitory effect of α2M* on growth inhibition induced by 1 pM TGF-β2” value in data set [1] (1 μM arachidonic acid, 200 μg/ml α2M*) was “almost completely reversed”. Moreover, the “effect on growth inhibition induced by TGF-β2 in the absence of α2M*” value in data set [1] (absence of α2M*) is given as “did not affect growth inhibition”. In addition, in data set [2], the “effect on plasma clearance of free 125I-TGF-β1” value was “did no affect”.
